# Results as given in PubChem BioAssay (NCI).
# Values joined by “and” are separate entries in the source; they are usually repeats but may differ in a detail not shown here. Identical values can stand only once.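 1) Cells in 96-well plates. 2) Compound, 48 h, 5 concentrations. 3) Linear interpolation between surrounding doses. 4) Unreached endpoint = highest concentration. GI50: concentration for 50% inhibition of growth. TGI: total growth inhibition.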
# Columns and labels:
# Assay in all cases: NCI tumour cell line growth inhibition, 48 h
# [1] = system: EKVX NSCLC
# [2] = system: MALME-3M melanoma
# [3] = system: NCI-H226 lung
# [4] = system: NCI-H23 lung
# [5] = system: RXF 393 renal
# [6] = system: SK-MEL-28 melanoma
# [7] = system: SNB-19 CNS
# [8] = system: MDA-MB-435
# [9] = system: DU-145 prostate
# [10] = system: HS 578T breast
Compound,TGI [1] [µM],TGI [2] [µM],TGI [3] [µM],TGI [4] [µM],TGI [5],TGI [6] [µM],TGI [7],GI50 [1] [µM],GI50 [2] [µM],GI50 [8] [µM],TGI [8] [µM],GI50 [4] [µM],GI50 [5] [µM],GI50 [6] [µM],GI50 [7] [µM],TGI [9] [µM],TGI [10] [µM],GI50 [3] [µM],GI50 [10] [µM],GI50 [9] [µM]
COC(=O)Cc1cc(=O)oc2c1C(=O)CCC2,> 100,> 100,> 100,> 100,> 100 µM,> 100,> 100 µM,,,,,,,,,,,,,
N#CC1=C(N)NC(=S)C(C#N)C12Nc1ccccc1S2 (stereo not drawn),8.04,84,,33.2,57.5 µM,56.7,> 100 µM,0.793,30.5,17.2,44.7,13.4,27.7,24.3,25.8,,,,,
O=C(O)C(CS)N=Cc1nc(-c2ccccc2)oc1O (stereo not drawn),> 100,> 100,> 100,> 100,> 100 µM,> 100,> 100 µM,,,,,,,,,,,,,
NC(=O)c1ncn(C2OC(CO)C(O)C2O)c1NC(=S)NC(=O)c1ccccc1 (stereo not drawn),> 100,> 100,> 100,> 100,> 100 µM,> 100,> 100 µM,,,,,,,,,,,,,
CCCC/C=C1\CCC(CN2CCCC2)C1=O (stereo not drawn),,33.1,31.8,32.1,,29.1,48.9 µM,,,,,,,,,,,,,
CN1C=C(C(N)=O)C2CC(O)[C@@](NC(=O)CS(N)(=O)=O)(C(=O)O)C2C1 (stereo partly drawn),> 42.6,20.3,8.52,3.48,4.16 µM,7.32,19.3 µM,,,,,,,,,,,,,
CCC1(Cl)C(=O)NC(=O)N(C2CC(O)C(CO)O2)C1N=[N+]=[N-] (stereo not drawn),> 100,> 100,,> 100,> 100 µM,> 100,> 100 µM,,,,,,,,,,,,,
CCCCOP1(=O)C=CC(Cl)=C(C)C1 (stereo not drawn),> 100,47.5,41.9,,,31.7,> 100 µM,,,,,,,,,,,,,
Cc1cc(N(CCC#N)CCC#N)ccc1/C=C/C(=O)Nc1ccccc1Cl,> 100,> 100,> 100,> 100,,> 100,> 100 µM,,,,,,,,,,,,,
Cc1cc(C)c2nccc(NCCCN(C)C)c2c1[N+](=O)[O-],> 100,36.4,,37.2,47.8 µM,37,> 100 µM,,,,> 100,,,,,> 100,> 100,,,
COc1cc(-c2nn3c(=O)n(-c4ccc(Cl)cc4)c(=O)nc3s2)cc(OC)c1OC,> 100,> 100,> 100,> 100,40.7 µM and 21.6 µM,> 100,50 µM and 83.8 µM,> 50,> 50,,,> 50,14.7,> 50,37.4,,,> 50,,
c1cc2ccc1C1NCCCN1CCN1CCCNC1c1ccc(cc1)C1NCCCN1CCN1CCCNC21 (stereo not drawn),> 100,> 100,,> 100,,> 100,> 100 µM,,,,,,,,,,,,,
C=CCN(N=O)C(=O)ON1C(=O)CCC1=O,> 100,> 100,,> 100,> 100 µM,> 100,> 100 µM,,,,,,,,,,,,,
Cc1cc2c(-c3nc4ccccn4c3NC34CC5CC(CC(C5)C3)C4)c(O)c(O)cc2c(O)c1-c1c(C)cc2c(-c3nc4ccccn4c3NC34CC5CC(CC(C5)C3)C4)c(O)c(O)cc2c1O,> 25,> 25,5.98,3.09,2.63 µM,4.69,3.99 µM,0.454,0.574,0.552,> 25,0.137,0.464,0.459,0.214,,16.2,0.929,0.85,
O=C1OC(c2ccc(Cl)c3ccccc23)c2ccccc21 (stereo not drawn),> 100,> 100,,> 100,> 100 µM,> 100,> 100 µM,,,,,,,,,,,,,
COc1ccc2nc3cc(Cl)ccc3c(Nc3ccc(O)c(CN4CCCC4)c3)c2c1,14.4,4.29,3.75,7.08,3.17 µM,3.46,13.9 µM,3.18,2.41,1.76,3.52,2.22,1.7,1.98,2.99,4.77,,1.84,,2.16
C/C(=N\O)[C@H]1CC[C@@]2(C)[C@@H]3CC[C@H]4C(C)(C)/C(=N/O)CC[C@@]45CC35CC[C@]12C (stereo partly drawn),> 16.7,,> 16.7,> 16.7,9.67 µM,14.2,> 16.7 µM,5.66,,,,4.96,4.02,4.34,8.21,6.2,7.54,5.03,2.23,2.85

Compound,TGI [1] [µM],TGI [2] [µM],TGI [3] [µM],TGI [4] [µM],TGI [5],TGI [6] [µM],TGI [7],GI50 [1] [µM],GI50 [2] [µM],GI50 [8] [µM],TGI [8] [µM],GI50 [4] [µM],GI50 [5] [µM],GI50 [6] [µM],GI50 [7] [µM],TGI [9] [µM],TGI [10] [µM],GI50 [3] [µM],GI50 [10] [µM],GI50 [9] [µM]
Cc1ccc(N2C(=O)/C(=C3\Sc4c(nc(C)n(C)c4=O)N3c3ccccc3)SC2=S)cc1,> 100,,64.6,> 100,53.9 µM,> 100,> 100 µM,,,,,,,,,,,,,
CC(C)(C)c1cc(C(=O)O)c(C(c2ccccc2)c2ccccc2C(=O)O)c(C(=O)O)c1 (stereo not drawn),> 100,> 100,76.7,> 100,> 100 µM,> 100,> 100 µM,,,,,,,,,,,,,
C=C1c2ccccc2N(S(=O)(=O)c2ccc(C)cc2)C12CCCCC2,> 100,> 100,> 100,> 100,> 100 µM,> 100,> 100 µM,,,,,,,,,,,,,
CCOC(=O)c1cc(C(=O)O)c(=O)n2c1[nH]c1ccccc12,> 100,> 100,,> 100,> 100 µM,> 100,> 100 µM,,,,,,,,,,,,,
O=c1ncccn1C1OC(CO)C(O)C1F (stereo not drawn),> 100,> 100,> 100,> 100,> 100 µM,> 100,> 100 µM,,,,,,,,,,,,,
CC12O[Te]34OC1(C)C(C)(O3)C2(C)O4,62.6,32.7,44.6,34.8,27 µM,23.3,37.5 µM,,,,,,,,,,,,,
O=C1[C@H]2ON(c3ccccc3)C(c3cccc([N+](=O)[O-])c3)[C@H]2C(=O)N1c1ccc(Cc2ccc(N3C(=O)[C@@H]4ON(c5ccccc5)C(c5cccc([N+](=O)[O-])c5)[C@@H]4C3=O)cc2)cc1 (stereo partly drawn),> 100,> 100,> 100,> 100,> 100 µM,> 100,> 100 µM,,,,,,,,,,,,,
CC1(C)Oc2ccccc2N2O[C@@H]3C(=O)N(c4ccccc4)C(=O)[C@@H]3C21c1ccccc1 (stereo partly drawn),> 100,42.5,> 100,> 100,60.8 µM,85,38.1 µM,,,,,,,,,,,,,
OCCN(CCO)c1ncnc2c1sc(=S)n2-c1ccccc1,> 100,> 100,> 100,> 100,> 100 µM,> 100,> 100 µM,,,,,,,,,,,,,
C1=CC=C2NCCSCCNC3=CC=CC=CC3=NCCSCCN=C2C=C1,> 100,> 100,> 100,> 100,,> 100,> 100 µM,,,,,,,,,,,,,
COC(=O)C1=C(C(=O)OC)N(C(C)C)[C@H]2C(C(=O)OC)=C(C(=O)OC)N(C(C)C)[C@@H]12,> 100,> 100,> 100,> 100,> 100 µM,> 100,> 100 µM,,,,,,,,,,,,,
O=C1Cc2ccccc2CCc2ccccc21,> 100,> 100,> 100,> 100,> 100 µM,> 100,> 100 µM,,,,,,,,,,,,,
COc1ccc(-c2conc2-c2ccccc2)cc1,> 100,> 80.1,> 25.6,> 100,> 100 µM,> 100,> 100 µM,2.64,4.95,,,0.549,0.249,10.8,0.647,,,2.42,0.267,0.416
O=c1/c(=C/c2ccc3c(c2)OCO3)sc2nnc(Cc3ccccc3)n12,> 100,> 100,> 100,> 100,> 100 µM,> 100,> 100 µM,,,,,,,,,,,,,
CCOc1ccccc1NC(=O)CCC(=O)NN,,> 100,> 100,> 100,> 100 µM,> 100,> 100 µM,,,,,,,,,,,,,
CCOC(=O)/N=c1\ssc(Cl)c1Cl,42.7,,> 100,11.3,10.6 µM,27.1,56.9 µM,19.9,,15.2,30.8,3.25,3.01,3.9,23.7,19.4,,27.8,,4.72
O=C(NOC(=O)c1ccc([N+](=O)[O-])cc1)c1ccc(Cl)cc1,> 100,> 100,,> 100,> 100 µM,> 100,> 100 µM,,,,,,,,,,,,,
